According to patent US20240150839A1, “METHODS FOR PREDICTING RESPONSIVENESS OF PROSTATE CANCER PATIENTS TO PARP INHIBITORS” (Memorial Sloan Kettering Cancer Center, priority 2019, published 2024):

How the values were obtained:
Format in all cases: cell-based, human
[1] = tested on: BRCA2 SMARTpool siRNA-transfected LAPC4 cells; experiment: MTT cell growth of BRCA2 siRNA-transfected LAPC4 cells with enzalutamide; conditions: BRCA2 siRNA LAPC4 vs scrambled siRNA; ENZ 20 μM, 72 hours after transfection (FIG. 1F)
Protocol: Cells infected with scrambled (scr) gRNA were used as a negative control. Cas9 and RHoGDI served as loading controls. […] Nuclei were stained with DAPI (blue). […] P-values were determined by Student's t-test. ***P<0.001. […] Equivalent volume of DMSO was used as placebo treatment. Cell growth was measured by BRDU incorporation assay (see Example 1) (±SD); P-values were determined by Student's t-test.***P<0.001. […] Parental LAPC4 cells were transiently transfected with BRCA2-specific SMARTpool siRNA for 96 hours. Total RNA was isolated, and BRCA2 mRNA was analyzed by qPCR. Scrambled SMARTpool siRNA-transfected cells were used as control (top). BRCA2- or scrambled SMARTpool siRNA-transfected LAPC4 cells were cultured in charcoal-stripped medium (CSS) or complete medium supplemented with enzalutamide (ENZ; 20 μM) for 72 hours after transfection (bottom). Equivalent volume of DMSO was used as placebo treatment. Cell growth was measured by MTT assay; SD, p-values were determined by Student's t-test. […] Control and CRISPR-edited LNCaP cells (10^3 cells/well) were mixed with Matrigel, and 3D cell cultures (organoids) were grown for 7 days in androgen-depleted, growth factor-enriched media. […]
(§1) Cell Proliferation Assay by MTT, BrdU and Crystal Violet. […] MTT crystals were dissolved in isopropanol and absorbance was measured in a BioTek plate reader at […] and represented graphically.

[2] = tested on: BRCA2 SMARTpool siRNA-transfected LNCaP cells; experiment: MTT cell growth of BRCA2 siRNA-transfected LNCaP cells with enzalutamide; conditions: BRCA2 siRNA LNCaP vs scrambled siRNA; ENZ 20 μM, 96 hours post transfection (FIG. 7G)
Protocol: Cells infected with scrambled (scr) gRNA were used as control. Equal amount of proteins was loaded in WedgeWell 6% gel and western blot was performed. ˜400 kDa BRCA2 band is indicated by arrow. GAPDH served as loading controls for western blot and qPCR. […] Genotypes are detected by PCR amplification followed by being treated with T7 endonuclease. Wt and mutant BRCA2 are indicated by red and green arrows, respectively. […] Equivalent volume of DMSO was used as placebo treatment. Cell growth was measured by MTT assay (see Example 1); SD, P-values determined by Student's t-test. *P<0.05, **P<0.01, ***P<0.001. […] Cell growth was measured by crystal violet staining assay (see Example 1) (±SD); P-values determined by Student's t-test. […] Cell growth was measured by MTT assay (see Example 1) (±SD); P-values determined by Student's t-test. […] Total RNA was isolated, and BRCA2 mRNA was analyzed by qPCR. […] Cell growth was measured by MTT assay; SD, P-values determined by Student's t-test. […]
as §1

BRCA2-null LNCaP cells [3] = experiment: Cell growth (BrdU, crystal violet, MTT) of BRCA2 CRISPR-edited LNCaP cells with enzalutamide; conditions: BRCA2-null LNCaP vs scr control; complete medium, 7 days (FIGS. 1E, 7D, 7F)
Protocol: Cells infected with scrambled (scr) gRNA were used as a negative control. Cas9 and RHoGDI served as loading controls. […] Nuclei were stained with DAPI (blue). […] P-values were determined by Student's t-test. ***P<0.001. […] Equivalent volume of DMSO was used as placebo treatment. Cell growth was measured by BRDU incorporation assay (see Example 1) (±SD); P-values were determined by Student's t-test.***P<0.001. […] Parental LAPC4 cells were transiently transfected with BRCA2-specific SMARTpool siRNA for 96 hours. Total RNA was isolated, and BRCA2 mRNA was analyzed by qPCR. Scrambled SMARTpool siRNA-transfected cells were used as control (top). […] Cell growth was measured by MTT assay; SD, p-values were determined by Student's t-test. […]
Cells infected with scrambled (scr) gRNA were used as control. […] Genotypes are detected by PCR amplification followed by being treated with T7 endonuclease. […] Cell growth was measured by MTT assay (see Example 1); SD, P-values determined by Student's t-test. *P<0.05, **P<0.01, ***P<0.001. […] Cell growth was measured by crystal violet staining assay (see Example 1) (±SD); P-values determined by Student's t-test. […] Cell growth was measured by MTT assay (see Example 1) (±SD); P-values determined by Student's t-test. […] Total RNA was isolated, and BRCA2 mRNA was analyzed by qPCR. […] Cell growth was measured by MTT assay; SD, P-values determined by Student's t-test. […]

BRCA2-null RWPE1 cells = experiment: MTT cell growth with olaparib; conditions: BRCA2-null vs control RWPE1; 3 μM and 10 μM olaparib, 7 days (FIG. 3G)
Protocol: Scr-CRISPR and BRCA2-CRISPR2 cells were also transfected with non-targeting shRNA (scr-Sh) for control of shRNA. GAPDH served as the loading control. […] Nuclei were stained with DAPI (blue). […] Control cells were transfected with empty vector. […] GAPDH served as the loading control. […] LNCaP cells were used as control. GAPDH served as the loading control. […] Nuclei were stained with DAPI (blue). […] Equivalent volume of DMSO was used as placebo treatment. Cell growth was measured by MTT assay; SD, P-values determined by Student's t-test. […] LNCaP-BRCA2-RB1 or control cells were incubated in charcoal-stripped medium (CSS) for 24 hours followed by treatment with 1 nM R1881 for another 48 hours (in CSS). […] After 24 hours, cells in the lower side of the chamber were fixed, stained, photographed in 100× magnification (top panel), and counted and represented in the form of the bar graph (bottom panel). P-values were determined by Student's t-test.
(§2) To generate BRCA2 knockout RWPE1 cells, BRCA2 gRNA2 was cloned into LentiCRISPRv2-GFP backbone which constitutively expresses Cas9 and GFP. Lentiviral infected cells were selected by FACS sorting for GFP positive cells (twice) and analyzed by western blot. […] Loss of BRCA2 in the pooled populations of LNCaP cells was analyzed by western blot using BRCA2-specific antibodies and this pooled population of cells was used for the following experiments. […]

MSK-PCa3 organoid = experiment: MTT growth of mCRPC organoids with PARPi; conditions: compared to benign organoid; 3 days (FIG. 6E)
Excerpt: (§3) Near-diploid benign prostate organoid is used as a control. […] GAPDH served as the loading control. […] The graphs show cell growth measured by MTT assay (±SD); P-trends determined by 2-way ANOVA.
(§4) Cell Culture. Human prostate cancer cells LNCaP, 22RV1, DU145, PC3, and VCaP were obtained from ATCC (Manassas, VA). LNCaP-C42 cells were obtained from VitroMed (Burlington, NC). The LNCaP-Abl cell line, E006AA-T cells, PC3M LAPC4 cell line were obtained. These cells were maintained in 10% FBS (LNCaP, LNCaP-C42, LAPC4, VCaP, 22RV1, DU145, PC3, PC3M, and E006AA) or 10% charcoal-stripped serum (LNCaP-Abl) supplemented with 2 mM of L-glutamine and 1×antibiotic/antimycotic (Gemini Bio-Products, Sacramento, CA) at 37° C. in 5% CO2. Human prostate epithelial cell RWPE1 was obtained from ATCC and cultured in keratinocyte serum-free medium (Thermo Fisher Scientific, Waltham, MA) at 37° C. in 5% CO2. Cells were authenticated by human short tandem repeat profiling at the MSK Integrated Genomics Operation Core. Patient-derived human prostate cancer organoids were cultured as described. Gao et al., Cell 159:176-87 (2014).
(§5) Cell Proliferation Assay by MTT, BrdU and Crystal Violet. For MTT assay, cells were plated at 2.5×10^3 per well in 96-well plates in complete media (10% FBS) or media supplemented with 10% charcoal-stripped serum. Cells were either treated with DMSO or with indicated inhibitors. After indicated times, cells were incubated in 0.5 mg/mL MTT (Invitrogen) for 1 hour at 37° C. MTT crystals were dissolved in isopropanol and absorbance was measured in a BioTek plate reader at […] and represented graphically.

MSK-PCa1 organoid = experiment: MTT growth of mCRPC organoids with PARPi; conditions: compared to benign organoid; 3 days (FIG. 6E)
Excerpt: as §3, §4, §5

[4] = tested on: RB1 knockdown LNCaP cells; experiment: MTT cell growth with PARP inhibitors; conditions: RB1 knockdown vs control LNCaP cells; olaparib 3 μM, talazoparib 0.005 μM (FIG. 2E)
Protocol: (§6) Scr-CRISPR and BRCA2-CRISPR2 cells were also transfected with non-targeting shRNA (scr-Sh) for control of shRNA. RHoGDI served as the loading control. […] Equivalent volume of DMSO was used as placebo treatment. Cell growth was measured by MTT assay; SD, p-values were determined by Student's t-test. […] FIG. 2C (2nd and 3rd rows) show the immunofluorescence (400× magnification) of F-actin filament stained with phalloidin in indicated CRISPR/shRNA-infected LNCaP cells. Nuclei were stained with DAPI (blue). […] 5×10^3 indicated cells were plated on the top of Boyden chamber (see Example 1) in serum-free media; 10% serum in the bottom chamber was used as chemo-attractant. After 48 hours, cells in the lower side of the chamber were fixed, stained, and photographed (100× magnification). […] Nuclei were stained with DAPI (blue). […] The graphs show cell growth measured by MTT assay (±SD); P-values determined by Student's t-test. […] RNA sequencing was analyzed by Partek.
(§7) To generate BRCA2-RB1 knockout-knockdown LNCaP cells, parental LNCaP cells were first infected with lentivirus containing BRCA2 gRNA or scr gRNA. Pooled population of the stable cells were established by puromycin selection and analyzed by western blot and qPCR. BRCA2-knockout or scr LNCaP cells were infected with lentivirus containing RB1 shRNA followed by hygromycin selection. BRCA2-knockout or scr (gRNA) LNCaP cells also infected with lentiviral non-targeting shRNA (scr-shRNA) were used as control. Cells within 4-10 passages after stable selection were used for the following experiments.
as §5

LNCaP-BRCA2-RB1 cells = experiment: MTT cell growth with PARP inhibitors; conditions: LNCaP-BRCA2-RB1 vs BRCA2-null LNCaP; olaparib 3 μM, talazoparib 0.005 μM (FIG. 2E)
Protocol: as §6, §7, §5

BRCA2-null LNCaP cells [5] = experiment: MTT cell growth of BRCA2 CRISPR-edited LNCaP cells with PARP inhibitors or cisplatin; conditions: BRCA2 knockout LNCaP vs control gRNA (scr) cells; complete medium, 6 days (FIG. 7C)
Protocol: Cells infected with scrambled (scr) gRNA were used as control. Equal amount of proteins was loaded in WedgeWell 6% gel and western blot was performed. ˜400 kDa BRCA2 band is indicated by arrow. GAPDH served as loading controls for western blot and qPCR. […] Genotypes are detected by PCR amplification followed by being treated with T7 endonuclease. Wt and mutant BRCA2 are indicated by red and green arrows, respectively. […] Equivalent volume of DMSO was used as placebo treatment. Cell growth was measured by MTT assay (see Example 1); SD, P-values determined by Student's t-test. *P<0.05, **P<0.01, ***P<0.001. FIGS. 7D-7E show the growth curve (FIG. 7D) and a bar graph (FIG. 7E) representing the cell growth of LNCaP BRCA2 CRISPR-edited and non-targeting control gRNA (scr) infected cells in complete medium supplemented with enzalutamide (ENZ; indicated concentration) for 7 days or charcoal-stripped medium (CSS) for 5 days, respectively. Equivalent volume of DMSO was used as placebo treatment. Cell growth was measured by crystal violet staining assay (see Example 1) (±SD); P-values determined by Student's t-test. […] Equivalent volume of DMSO was used as placebo treatment. Cell growth was measured by MTT assay (see Example 1) (±SD); P-values determined by Student's t-test. […] Total RNA was isolated, and BRCA2 mRNA was analyzed by qPCR. […] Cell growth was measured by MTT assay; SD, P-values determined by Student's t-test.
as §2, §1

SMILES: CNC(=O)c1ccc(N2C(=S)N(c3ccc(C#N)c(C(F)(F)F)c3)C(=O)C2(C)C)cc1F [enzalutamide]
- growth in complete media supplemented with enzalutamide [1]: resistance to androgen depletion
- growth in complete media supplemented with enzalutamide [2]: resistance to androgen depletion
- resistance to enzalutamide (cell growth) (BRCA2-null LNCaP cells [3]): relative resistance

SMILES: O=C(c1cc(Cc2n[nH]c(=O)c3ccccc23)ccc1F)N1CCN(C(=O)C2CC2)CC1 [olaparib]
- sensitivity (cell growth, MTT) (BRCA2-null RWPE1 cells): enhanced sensitivity
- organoid growth (MTT) (MSK-PCa3 organoid): growth reduction
- organoid growth (MTT) (MSK-PCa1 organoid): growth reduction
- inhibitory effect on cell growth (MTT) [4]: could not be detected
- cell growth inhibition (MTT) (LNCaP-BRCA2-RB1 cells): more cell growth inhibition

SMILES: CNCc1ccc(-c2[nH]c3cc(F)cc4c3c2CCNC4=O)cc1 [rucaparib]
- sensitivity (cell growth, MTT) (BRCA2-null LNCaP cells [5]): more sensitivity
